Literature values, collected in article PMC6105163, “Abaloparatide Exerts Bone Anabolic Effects with Less Stimulation of Bone Resorption-Related Factors: A Comparison with Teriparatide” (Calcified Tissue International, 2018).

Columns and labels:
cAMP and PKC = settings: ref [24]; cited from earlier work
Excerpt: There is another possibility that the two peptides could show the different activity on protein kinase C (PKC). PKC is the downstream signal of PTH1R and is involved in the stimulation of bone resorption-related factors and bone catabolism. In fact, ostabolin, an amidated form of human PTH(1–31), differs from PTH(1–34) in PKC activation.

osteocytes = settings: ref [11], [12]; cited from earlier work
Excerpt: The mechanism of action of TPTD on bone turnover is not fully understood; however, many studies have examined the molecular mechanisms in recent decades. According to a previous study, PTH(1–34) acts on osteoblasts and indirectly induces bone resorption by activating osteoclasts. PTH(1–34) increases the expression of receptor activator of nuclear factor kappa-B ligand (RANKL) and macrophage colony-stimulating factor (M-CSF) and decreases the expression of osteoprotegerin (OPG), a decoy receptor of RANKL [9]. These effects of PTH(1–34) further promote the maturation of osteoclasts with ... || Finally, we evaluated the effects of ABL on WNT signaling antagonists. WNT signaling antagonists such as sclerostin and DKK1 are secreted from osteocytes. They inhibit bone formation by antagonizing canonical WNT ligands and subsequently suppress WNT-mediated signaling pathways. […] We therefore evaluated the effects of ABL on WNT signaling antagonists in comparison with TPTD. It is generally known that human osteocytes have been diffic ...

osteoporosis = settings: cited from earlier work
Excerpt: In fact, teriparatide (TPTD), the N-terminal 34 amino acids fragment of PTH, is currently the only bone anabolic agent used for the treatment of osteoporosis, by daily or weekly subcutaneous administration.

osteoblasts = settings: cited from earlier work
Excerpt: The mechanism of action of TPTD on bone turnover is not fully understood; however, many studies have examined the molecular mechanisms in recent decades. According to a previous study, PTH(1–34) acts on osteoblasts and indirectly induces bone resorption by activating osteoclasts. PTH(1–34) increases the expression of receptor activator of nuclear factor kappa-B ligand (RANKL) and macrophage colony-stimulating factor (M-CSF) and decreases the expression of osteoprotegerin (OPG), a decoy receptor of RANKL [9]. These effects of PTH(1–34) further promote the maturation of osteoclasts with ... || We next investigated the effect of ABL on bone formation in SaOS-2. In the previous study, bone formation related to PTH1R signaling was enhanced by the intermittent treatment of TPTD in osteoblasts. This anabolic effect of intermittent TPTD treatment was mediated by IGF-1, which promoted the differentiation and mineralization of osteoblasts. We therefore evaluated the effects on IGF-1 and osteocalcin, a marker gene for differentiated osteoblasts, with a repeating 6-h exposure cycle of ABL and TPTD in SaOS-2 (Fig. 3a). As expected, ABL as well as TPTD increased the gene expressio ...

human PTH(1–34) [Teriparatide]
cAMP accumulation and PKC activation (cAMP and PKC): stimulated both cAMP and PKC
expression of WNT signaling antagonists in osteocytes (osteocytes): inhibited
secretion of WNT signaling antagonists such as sclerostin and DKK1 (osteocytes): inhibiting
BMD vs antiresorptive agents such as bisphosphonates (osteoporosis; daily or weekly subcutaneous): greater than antiresorptive agents
effect on the hip (osteoporosis; daily or weekly subcutaneous): modest
blood calcium (osteoporosis; in vivo): mildly increased
bone formation related to PTH1R signaling (osteoblasts; intermittent treatment, osteoblasts, ref [18]): enhanced
OPG expression (osteoblasts; ref [9]): decreases
RANKL and M-CSF expression (osteoblasts; ref [9]): increases
IGF-1 expression (osteoblasts; ref [10]): enhancement
